The species entered for one test is Mus musculus. Description: Inhibition of TPA-induced tumor progression in mouse skin at 0.2 umol measured at week 20. The test is classed as functional.
For a further test, the system named is DU-145. Description: Cytotoxicity against human DU145 cells. The class given is functional, cell-based.
Test [1] is described as follows: Inhibition of rat microsomal 5-alpha reductase assessed as inhibition of conversion of [4-14C]testosterone to [4-14C] dihydrotestosterone after 10 mins.
The test system of another test is HeLa. Description: Cytotoxicity against human HeLa cells. The test is classed as functional, cell-based. The settings on record: Homo sapiens, HeLa.
Test [2] can be described thus: Cytotoxicity against human 95-D cells. The test is classed as functional, cell-based.
A further test deals with HL-60. Description: Cytotoxicity against human HL60 cells. The test is classed as functional, cell-based.
The test system of a further test is NUGC-3. Description: Cytotoxicity against human NUGC3 cells. The class given is functional, cell-based.
The target in test [3] is T1, DNA topoisomerase 2-alpha (Homo sapiens, UniProt P11388). Description: Inhibition of topoisomerase 2.
A short description of test [4]: Growth inhibition of H-Ras transformed rat Rat2 cells. The class given is functional.
Another test has as its system J82. Description: Growth inhibition of H-Ras expressing human J82 cells. The test is classed as functional.
In a further test the test system is Bel-7402. Description: Cytotoxicity against human Bel7402 cells. The class given is functional, cell-based.
Test [5] relates to P388. Kind of test: Cytotoxicity against mouse P388 cells. The class given is functional, cell-based.
The next test concerns SGC-7901. Kind of test: Cytotoxicity against human SGC7901 cells. The test is classed as functional, cell-based.
Test [6] relates to Lewis lung carcinoma cell line. Description: Antitumor activity against mouse LLC cells allografted in C57B/6 mouse assessed as tumor growth inhibition at 28 mg/kg relative to control. The class given is functional. The conditions noted are these: read-out: TGI.
In test [7] the test system is Lewis lung carcinoma cell line. Kind of test: Antitumor activity against mouse LLC cells allografted in C57B/6 mouse assessed as inhibition of tumor metastasis at 28 mg/kg relative to control. The class given is functional. On the set-up: scale not given: the % may be the effect or the level left.
For test [8], the target named is T1, DNA topoisomerase 2-alpha. Description: Inhibition of topoisomerase 2a in human HuH7 cells. The class given is cell-based, Huh-7.
For test [9], the target named is T2, DNA topoisomerase 1 (Homo sapiens, UniProt P11387). Kind of test: Inhibition of topoisomerase 1 in human HuH7 cells. The test is classed as cell-based, Huh-7.
Test [10] concerns Lewis lung carcinoma cell line. Description: Antitumor activity against mouse LLC cells allografted in mouse assessed as reduction in tumor size at 10 mg/kg, ip qd for 2 weeks measured on day 14 relative to control. The test is classed as functional. The settings on record: route intraperitoneal.
Test [11] in a line: Cytotoxicity against mouse LLC cells. The class given is functional, cell-based. The settings on record: Lewis lung carcinoma.
In the next test the test system is HepG2. Description: Cytotoxicity against human HepG2 cells. The class given is functional, cell-based.
Test [12] deals with Lewis lung carcinoma cell line. Description: Antitumor activity against mouse LLC cells allografted in mouse assessed as reduction in tumor size at 5 mg/kg, ip qd for 2 weeks measured on day 20 relative to control. The settings on record: route intraperitoneal. The class given is functional.
Test [13] has as its system Lewis lung carcinoma cell line. Description: Antitumor activity against mouse LLC cells allografted in mouse assessed as reduction in tumor size at 5 mg/kg, ip qd for 2 weeks measured on day 14 relative to control. The class given is functional. The settings on record: route intraperitoneal.
The next test relates to K562. Kind of test: Cytotoxicity against human K562 cells. The class given is functional, cell-based.
The subject of test [14] is Lewis lung carcinoma cell line. Kind of test: Antitumor activity against mouse LLC cells allografted in mouse assessed as reduction in tumor size at 20 mg/kg, ip qd for 2 weeks measured on day 20 relative to control. The test is classed as functional. The conditions noted are these: route intraperitoneal.
In the next test the test system is Huh-7. Kind of test: Cytotoxicity against human HuH7 cells. The class given is functional, cell-based.
A short description of test [15]: Cytotoxicity against human Hep3B cells. The class given is functional, cell-based, Hep 3B2.
Test [16] has as its system Lewis lung carcinoma cell line. Description: Antitumor activity against mouse LLC cells allografted in mouse assessed as reduction in tumor size at 2 mg/kg, ip qd for 2 weeks measured on day 14 relative to control. The settings on record: route intraperitoneal. The class given is functional.
Test [17] can be described thus: Cytotoxicity against mouse Meth-A cells. The class given is functional, cell-based.
For test [18], the target named is T2, DNA topoisomerase 1. Kind of test: Inhibition of topoisomerase 1.
Test [19] has as its system Lewis lung carcinoma cell line. Description: Antitumor activity against mouse LLC cells allografted in mouse assessed as reduction in tumor size at 10 mg/kg, ip qd for 2 weeks measured on day 20 relative to control. The test is classed as functional. The settings on record: route intraperitoneal.
Another test deals with T47D. Description: Cytotoxicity against human T47D cells. The class given is functional, cell-based.
The test system of test [20] is Lewis lung carcinoma cell line. Description: Antitumor activity against mouse LLC cells allografted in mouse assessed as reduction in tumor size at 20 mg/kg, ip qd for 2 weeks measured on day 14 relative to control. The conditions noted are these: route intraperitoneal. The test is classed as functional.
In test [21] the test system is Lewis lung carcinoma cell line. Description: Antitumor activity against mouse LLC cells allografted in mouse assessed as reduction in tumor size at 2 mg/kg, ip qd for 2 weeks measured on day 20 relative to control. The class given is functional. The conditions noted are these: route intraperitoneal.
Another test has as its system CCRF S-180. Kind of test: Cytotoxicity against mouse S180 cells. The test is classed as functional, cell-based.
The test system of another test is L1210. Description: Cytotoxicity against mouse L1210 cells. The class given is functional, cell-based.
Test [22] deals with P388. Kind of test: Antiproliferative activity against mouse P388 cells. The class given is functional, cell-based.
The test system of test [23] is P388. Kind of test: Antitumor activity against mouse P388 cells allografted in CDF1 mouse assessed as increase in survival rate at 3 mg/kg. The test is classed as functional.
In test [24] the test system is P388. Kind of test: Antitumor activity against mouse P388 cells allografted in CDF1 mouse assessed as increase in survival rate at 10 mg/kg. The class given is functional.
In a further test the test system is COLO 205. Kind of test: Cytotoxicity against human COLO205 cells. The class given is functional, cell-based.
Another test has as its system A549. Kind of test: Cytotoxicity against human A549 cells. The test is classed as functional, cell-based.

≈ marks a conversion by molar mass, not a printed value.

One may read the IC50 as the concentration needed to halve the response being measured. One may read the GI50 as the concentration at which growth is held to half of that of the control. Usually T/C stands for the ratio of treated to control.

T1 sequence (P11388 whole entry): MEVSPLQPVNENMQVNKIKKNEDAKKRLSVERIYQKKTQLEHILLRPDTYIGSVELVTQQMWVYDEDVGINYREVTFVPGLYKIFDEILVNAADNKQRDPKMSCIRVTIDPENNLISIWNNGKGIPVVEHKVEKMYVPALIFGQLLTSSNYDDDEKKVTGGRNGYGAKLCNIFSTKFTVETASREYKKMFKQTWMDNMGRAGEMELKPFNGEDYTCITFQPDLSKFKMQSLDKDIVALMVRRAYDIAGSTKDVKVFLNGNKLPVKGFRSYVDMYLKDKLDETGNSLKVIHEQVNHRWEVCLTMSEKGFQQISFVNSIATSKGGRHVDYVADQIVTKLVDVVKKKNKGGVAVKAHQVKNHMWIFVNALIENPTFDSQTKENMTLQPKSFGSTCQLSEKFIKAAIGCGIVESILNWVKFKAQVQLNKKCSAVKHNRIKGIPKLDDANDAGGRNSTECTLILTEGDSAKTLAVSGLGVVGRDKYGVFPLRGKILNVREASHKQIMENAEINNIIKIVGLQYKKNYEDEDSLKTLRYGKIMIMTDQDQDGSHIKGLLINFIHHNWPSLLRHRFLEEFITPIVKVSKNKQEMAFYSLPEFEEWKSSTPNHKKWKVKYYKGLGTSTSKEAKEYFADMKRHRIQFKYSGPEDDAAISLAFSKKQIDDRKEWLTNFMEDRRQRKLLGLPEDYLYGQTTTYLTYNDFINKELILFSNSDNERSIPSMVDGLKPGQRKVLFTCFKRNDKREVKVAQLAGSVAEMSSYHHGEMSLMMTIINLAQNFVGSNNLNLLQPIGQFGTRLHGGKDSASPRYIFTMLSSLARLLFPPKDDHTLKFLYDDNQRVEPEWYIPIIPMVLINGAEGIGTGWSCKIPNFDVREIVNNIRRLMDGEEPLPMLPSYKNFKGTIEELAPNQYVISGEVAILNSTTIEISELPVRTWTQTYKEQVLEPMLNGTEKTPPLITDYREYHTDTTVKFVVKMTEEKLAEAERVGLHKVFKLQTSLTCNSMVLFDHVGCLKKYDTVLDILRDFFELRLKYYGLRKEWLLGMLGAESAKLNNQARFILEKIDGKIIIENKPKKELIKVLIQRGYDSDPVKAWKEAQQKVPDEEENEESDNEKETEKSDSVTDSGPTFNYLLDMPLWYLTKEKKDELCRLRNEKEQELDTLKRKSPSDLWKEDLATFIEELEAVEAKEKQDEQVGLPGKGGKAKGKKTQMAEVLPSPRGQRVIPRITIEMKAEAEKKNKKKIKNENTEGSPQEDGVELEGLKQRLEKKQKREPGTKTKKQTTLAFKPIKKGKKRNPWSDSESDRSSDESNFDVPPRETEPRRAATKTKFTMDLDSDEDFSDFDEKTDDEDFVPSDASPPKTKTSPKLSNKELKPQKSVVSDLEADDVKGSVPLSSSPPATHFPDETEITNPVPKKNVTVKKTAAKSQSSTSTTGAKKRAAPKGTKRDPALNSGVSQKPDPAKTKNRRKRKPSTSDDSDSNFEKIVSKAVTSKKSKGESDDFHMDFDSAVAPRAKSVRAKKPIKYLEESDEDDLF
T2 sequence (P11387 whole entry): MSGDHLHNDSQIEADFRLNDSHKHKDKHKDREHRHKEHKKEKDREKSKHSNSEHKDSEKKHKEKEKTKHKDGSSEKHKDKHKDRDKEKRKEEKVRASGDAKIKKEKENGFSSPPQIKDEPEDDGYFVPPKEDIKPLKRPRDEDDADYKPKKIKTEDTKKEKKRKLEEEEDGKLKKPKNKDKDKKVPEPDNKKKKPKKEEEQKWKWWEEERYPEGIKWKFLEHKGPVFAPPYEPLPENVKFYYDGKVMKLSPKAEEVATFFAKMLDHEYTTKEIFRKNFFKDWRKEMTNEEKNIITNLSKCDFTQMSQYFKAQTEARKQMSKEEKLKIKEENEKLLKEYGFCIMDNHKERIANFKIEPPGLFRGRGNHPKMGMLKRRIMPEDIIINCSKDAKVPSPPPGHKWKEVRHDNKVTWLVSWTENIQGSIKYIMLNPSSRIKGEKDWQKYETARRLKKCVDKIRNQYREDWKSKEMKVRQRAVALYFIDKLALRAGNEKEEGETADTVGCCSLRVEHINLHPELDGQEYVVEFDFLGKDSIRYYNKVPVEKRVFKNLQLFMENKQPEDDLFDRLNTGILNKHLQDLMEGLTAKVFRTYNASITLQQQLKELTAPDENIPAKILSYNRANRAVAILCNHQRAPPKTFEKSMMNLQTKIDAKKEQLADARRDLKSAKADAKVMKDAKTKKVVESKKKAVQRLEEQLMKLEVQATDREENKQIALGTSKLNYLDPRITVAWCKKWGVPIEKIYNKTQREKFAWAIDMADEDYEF

For `C=C(CC[C@@H](C(=O)O)[C@H]1[C@H](O)C[C@@]2(C)C3=CC[C@H]4C(C)(C)[C@H](OC(C)=O)CC[C@]4(C)C3=CC[C@]12C)C(C)C`, the “inhibition (INH)” value in the test filed under Mus musculus was found to be 92%.

Turning to `C=C(CC[C@@H](C(=O)O)[C@H]1[C@H](O)C[C@@]2(C)C3=CC[C@H]4C(C)(CO)C(=O)CC[C@]4(C)C3=CC[C@]12C)C(C)C` (stereo not given in full), the IC50 in the test on DU-145 was 49.7 µM.

Consider `C/C(=C\CC[C@@H](C)[C@H]1C[C@H](O)[C@@]2(C)C3=CC[C@H]4C(C)(C)C(=O)CC[C@]4(C)C3=CC[C@]12C)CO`, for which the IC50 in test [1] was 41.9 µM; with HeLa it was 1 µM.

As to `CCO[C@@H]1C[C@H]2C(C)(C)[C@H](OC(C)=O)CC[C@]2(C)C2=C1[C@]1(C)[C@@H](OC(C)=O)C[C@H]([C@H](C)C(C/C=C(\C)C(=O)O)OC(C)=O)[C@@]1(C)CC2` (stereo not given in full), the IC50 in [2] stood at 46.5 µM; with HeLa, 59.1 µM.

In the test with HL-60, `CC(=O)O[C@H]1CC[C@]2(C)C3=C(CC[C@H]2C1(C)C)[C@]1(C)CC[C@H]([C@@H](CCC=C(C)C)C(=O)O)[C@@]1(C)CC3` [ACETYL TRAMETENOLIC ACID] displayed an IC50 of 25 µM.

As for `C=C(CCC(C(=O)O)[C@H]1CC[C@@]2(C)C3=CC[C@H]4C(C)(C)C(=O)CC[C@]4(C)C3=CC[C@]12C)C(C)C` (stereo not given in full) [DEHYDROEBURICONIC ACID], the values for the IC50 (in the test on NUGC-3; in [3]) were 38.4 µM and 4.6 µM, respectively.

Regarding `CC(C)=CCC[C@@H](C(=O)O)[C@H]1CC[C@@]2(C)C3=CC[C@H]4C(C)(C)[C@@H](O)CC[C@]4(C)C3=CC[C@]12C` [DEHYDROTRAMETENOLIC ACID], the GI50 in [4] was 39.2 µM; in the test with J82 it was 26.7 µM.

On to `CC(C)=CCCC(C(=O)O)[C@H]1CC[C@@]2(C)C3=CC[C@H]4C(C)(C)C(=O)CC[C@]4(C)C3=CC[C@]12C` (stereo not given in full) [DEHYDROTRAMETENONIC ACID], for which the IC50 turned out to be 63.6 µM in the test with NUGC-3 and 37.5 µM in [3].

In the case of `COc1cc([C@@H]2c3cc4c(cc3[C@@H](O[C@@H]3O[C@@H]5CO[C@@H](C)O[C@H]5[C@H](O)[C@H]3O)[C@H]3COC(=O)[C@H]23)OCO4)cc(OC)c1O` [ETOPOSIDE], the IC50 turned out to be 80 nM with Bel-7402, 80 nM in the test with P388 [5], 80 nM in the test on SGC-7901 and 0.08 µM in the test with HeLa.

As to `C/C(=C/CC[C@@H](C)[C@H]1CC[C@@]2(C)C3=C(CC[C@]12C)[C@@]1(C)CCC(=O)C(C)(C)[C@@H]1CC3=O)C(=O)O` [GANODERIC ACID DM], the IC50 in test [1] was 10.6 µM; in the test with HeLa, 101 µM.

On to `C/C(=C/CC[C@@H](C)[C@H]1C[C@H](O)[C@@]2(C)C3=CC[C@H]4C(C)(C)C(=O)CC[C@]4(C)C3=CC[C@]12C)C(=O)O` [GANODERIC ACID TR], for which the half-inhibitory concentration (IC50) in [1] stood at 8.5 µM.

For `CC(=O)O[C@@H](C/C=C(\C)C(=O)O)[C@@H](C)[C@H]1C[C@H](OC(C)=O)[C@@]2(C)C3=CC[C@H]4C(C)(C)[C@H](OC(C)=O)CC[C@]4(C)C3=CC[C@]12C` [GANODERIC ACID T], in test [6], the inhibition in vivo at 28 mg/kg is 63%. Moreover, the Activity in [7] is 78%.

For `CC(=O)O[C@H]1C[C@H]([C@H](C)CC/C=C(\C)C(=O)O)[C@@]2(C)CC=C3C(=CC[C@H]4C(C)(C)[C@@H](O)CC[C@]34C)[C@]12C` [GANODERIC ACID X], the values for the IC50 (in [8]; against DNA topoisomerase 1 [9]) were 25 µM and 55 µM, respectively.

Regarding `C[C@H](CCC=C(CO)CO)[C@H]1CC[C@@]2(C)C3=CC[C@H]4C(C)(C)C(=O)CC[C@]4(C)C3=CC[C@]12C` [GANODERIOL F], the T/C in test [10] came to 54%; in test [12], 79%; in [13] it was 64%; in test [14], 54%; in [16], 38%; in test [19], 63%. Also, the T/C in test [20] is recorded as 48%; in test [21], 45%. For the same compound, the IC50 stood at 2 µg/mL (≈ 4.4 µM) in test [11]; 17 µM in the test on HepG2; 17 µM in test [3]; 4 µM with K562; 8.5 µM in the test on Huh-7; 25.3 µM in test [15]. For the same compound, the IC50 stood at 10.1 µg/mL (≈ 22.2 µM) in test [17]; 106 µM against DNA topoisomerase 1 [18]; 5 µM in the test on HeLa; 3 µg/mL (≈ 6.6 µM) in the test on T47D; 7.1 µg/mL (≈ 15.6 µM) with CCRF S-180.

Consider `CC[C@@]1(O)C(=O)OCc2c1cc1n(c2=O)Cc2cc3cc(O)ccc3nc2-1` [HYDROXYCAMPTOTHECIN], for which the IC50 in test [2] stood at 21.3 µM; in the test on HeLa, 29.5 µM.

For `CC(C)=CC[C@@H](O)[C@@H](C)[C@H]1CC[C@@]2(C)C3=C(CC[C@]12C)[C@@]1(C)CC[C@H](O)C(C)(C)[C@@H]1CC3` [INOTODIOL], the IC50 with L1210 is 110 µM; with P388 [22], 13.9 µM; in the test on HL-60, 25 µM; with COLO 205 it was 171 µM. In addition, the survival at 3 mg/kg with P388 [23] stood at 9.7%. For the same compound, the survival at 10 mg/kg in the test on P388 [24] came out at 20.8%.

As for `C=C(CC[C@@H](C(=O)O)[C@H]1[C@H](O)C[C@@]2(C)C3=CC[C@H]4C(C)(C)C(=O)CC[C@]4(C)C3=CC[C@]12C)C(C)C` [POLYPORENIC ACID B], the “inhibition (INH)” value in the test filed under Mus musculus was determined as 83%. Half-maximal inhibition in the test with A549 (IC50) required 19.8 µM.

For the compound `C=C(C)[C@@H]1CC=C2C(=CC[C@]3(C)[C@@H]([C@@H](CCC=C(C)C)C(=O)O)[C@H](O)C[C@@]23C)[C@@]1(C)CCC(=O)O` [PORICOIC ACID B], the “inhibition (INH)” value in the test listed under Mus musculus was found to be 68%.

`C=C(C)[C@@H]1CCC2=C(CC[C@]3(C)[C@@H]([C@@H](CCC=C(C)C)C(=O)O)[C@H](O)C[C@@]23C)[C@@]1(C)CCC(=O)O` [PORICOIC ACID G] yielded a GI50 in the test with HL-60 of 39.3 nM.
